The text below walks through data of publication PMC8231229, “New Trimethoprim-Like Molecules: Bacteriological Evaluation and Insights into Their Action” (Antibiotics, 2021).

The term MIC denotes the lowest concentration found to suppress growth. By inhibition is commonly meant how much of the control response was suppressed. A low value points to a weak effect.

Converted amounts (≈) assume the structure as drawn. Read-outs that look alike come from different tables or passages of the source. Peptide text beside a SMILES is read from it. * marks the point of attachment. βNA = c1ccc2cc(N*)ccc2c1

Series [1] relates to E. coli 220560529. Kind of series: Susceptibility test in TMP-resistant strain. The conditions noted are these: data not shown. The format is cell-based. On the procedure: (§1) The minimum inhibitory concentrations (MICs) of colistin, TMP, 1a, and 1b were determined using the microdilution method, according to EUCAST recommendations.
For series [2], the system named is S. epidermidis 220560752. Kind of series: Susceptibility test in TMP-resistant strain. The format is cell-based. The note with it: data not shown. As for the experimental part: as §1
Series [3] can be described thus: Storage stability checked by HPLC-MS. It counts as physicochemical. The conditions noted are these: for stability of stock solutions in DMSO: kept in the cold; for time after synthesis without signs of decomposition: stored at −20 °C under an inert atmosphere, HPLC-MS. On the procedure: Compounds 1a and 1b were prepared as previously reported, from the interaction of TMP with aldehydes and isocyanides in acetonitrile under Yb(OTf)3 catalysis. The compounds were purified by chromatography and stored at −20 °C under an inert atmosphere. Stock solutions in DMSO were stable when kept in the cold. The integrity of these compounds and solutions thereof was confirmed by HPLC-MS (column: ZORBAX Extend-C18 3.5 μm 2.1 × 50 mm, Agilent; mobile phase A: H2O + 0.05% HCOOH; mobile phase B: ACN + 0.05% HCOOH; 10 min; 35 °C). There were no signs of decomposition at least 1 year after their chemical synthesis.

In series [4] the test system is Pseudomonas aeruginosa PAO1. Further details: method as in PMID 31334221. The conditions noted are these: tested alone; cited from earlier work.
The subject of series [5] is L-929 cells. Briefly: Cytotoxicity assay (resazurin). The format is cell-based, murine. On the procedure:
(§2) The cytotoxicity assay was carried out in the human hepatocellular carcinoma cell line Hep G2 ATCC and in murine L-929 fibroblasts (NCTC clone 929, ECACC 88102702), based on the experiments described by Vinuesa et al.. The cells were obtained from Dr. Ricardo Pérez-Tomás (Cancer Cell Biology, University of Barcelona). The cytotoxicity of TMP and compounds 1a and 1b was determined by measuring the intracellular reduction of resazurin sodium salt (Sigma-Aldrich, St. Louis, MO, USA). HepG2 and L-929 cells were grown in RPMI 1640 and MEM medium, respectively (Biochrom AG, Berlin, Germany), supplemented with 10% fetal bovine serum. Cells from pre-confluent cultures were harvested with trypsin-EDTA and maintained at 37 °C and 5% CO2. […] Twenty µL of resazurin was then added to each well and the plates were incubated under the same conditions. Fluorescence was measured at an excitation wavelength of 530 nm and an emission wavelength of 590 nm using a scanning multi-well spectrophotometer (FLUOstar OPTIMA, BMG Labtech, Germany). Cytotoxicity was calculated as follows:(1) % Cytotoxicity = 100−(AT−ADB)/(AC−AMB) ×100 where AT is the absorbance of the treated cells, ADB the absorbance of the drug blank control, AC the absorbance of the untreated cells, and ACB the absorbance of the medium blank.

Series [6] is described as follows: Cytotoxicity assay (resazurin). It counts as cell-based, murine. The note with it: mouse, L-929 fibroblasts; 32 μg/mL, 24 h; percentage of dead cells. As for the experimental part:
as §2
A general note: The colour change of resazurin is a common sign of viable cells or microbes.

For series [7], the target named is T1, E. coli DHFR (Escherichia coli, UniProt P0ABQ4).
T1 construct: gift of E. Shakhnovich and J.V. Rodrigues (Harvard University)
T1 sequence (P0ABQ4 whole entry): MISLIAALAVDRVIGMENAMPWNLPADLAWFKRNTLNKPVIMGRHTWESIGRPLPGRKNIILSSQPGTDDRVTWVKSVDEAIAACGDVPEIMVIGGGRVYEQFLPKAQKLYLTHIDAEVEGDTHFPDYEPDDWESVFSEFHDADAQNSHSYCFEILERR
Briefly: Dihydrofolate reductase assay. It counts as biochemical. The conditions noted are these: inhibitor 5 µM, 30 min incubation. On the procedure: The DHFR assay is based on the reduction of 7,8-dihydrofolate to 5,6,7,8-tetrahydrofolate catalyzed by DHFR and using NADPH as a cofactor. Purified E. coli DHFR was kindly provided by E. Shakhnovich and J.V. Rodrigues (Harvard University, Cambridge, MA, USA). The DHFR assay kit (CS0340) was purchased from Sigma-Aldrich. The assay was performed in 96-well flat-bottom plates (Corning Costar 3606, NY, USA) with the protocol adjusted to accommodate a final reaction volume of 200 µL. DHFR was diluted to a final concentration of 0.03 µg/mL. The inhibitory effect of compounds 1a and 1b was tested, with TMP serving as the control. All three drugs were used at a concentration of 5 µM, which was higher than the respective MICs (Table 1). To determine the effect of the concentration of the DHFR cofactor NADPH on inhibition, a dilution series of NADPH in assay buffer was carried out to obtain a concentration range between 60 µM and 240 µM. A dilution series of H2F was similarly carried out in assay buffer to obtain a concentration range from 50 µM to 200 µM. In all assays, the enzyme was mixed with the different inhibitors and incubated for 30 min before the enzymatic reaction was initiated by the addition of NADPH and H2F. The reaction was conducted at 37 °C and monitored by the decrease in absorbance at 340 nm (indicative of a decrease in the NADPH concentration). […]

For series [8], the system named is Serratia marcescens NIMA. Briefly: MIC by microdilution (EUCAST), planktonic bacteria. The format is cell-based. The note with it: tested alone. As for the experimental part:
as §1

The subject of series [9] is Escherichia coli ATCC 25922. On the set-up: method as in PMID 31334221. The conditions noted are these: tested alone; cited from earlier work.
Series [10] has as its system HepG2 cells. Kind of series: Cytotoxicity assay (resazurin). The format is cell-based, human. As for the experimental part: as §2
A short description of series [11]: Cytotoxicity assay (resazurin). The format is cell-based, human. The note with it: human, HepG2 cells; 32 μg/mL, 24 h; percentage of dead cells. On the procedure:
as §2

The subject of series [12] is S. marcescens NIMA. Briefly: Real-time growth curves with sublethal concentrations. The note with it: with SMX (1:20), in the presence of colistin. The format is cell-based. As for the experimental part: (§3) Additionally, the effect of TMP-SMX and the GBBR analogues in combination with sublethal concentrations of colistin was assessed in growth curves of E. coli ATCC 25922, P. aeruginosa PAO1, and S. marcescens NIMA. Exponential-phase cultures were adjusted to 5 × 10^6 CFU/mL in a final volume of 10 mL of TSB and the antimicrobials were added at sublethal concentrations. Growth was monitored using RTS-1C real-time cell growth loggers (Biosan SIA, Riga, Latvia) in cells incubated for 24 h at 37 °C with shaking at 2000 rpm. Growth was measured every 10 min as the optical density (OD 850 nm).

The subject of series [13] is bacterial growth. On the set-up: method as in PMID 23722434. The note with it: concentrations up to 40 µg/mL; cited from earlier work.
Series [14] has as its system P. aeruginosa PAO1. Kind of series: MIC in presence or absence of efflux pump inhibitor PAßN. It counts as cell-based. The note with it: colistin alone. As for the experimental part:
The efflux pump inhibitor phenyl-arginyl-β-naphthylamide (PaβN) was purchased from Sigma-Aldrich Chemicals (Madrid, Spain). The MIC of the TMP analogues in combination with SMX in the presence of 20 µg PaβN/mL was determined in P. aeruginosa PAO1 using the microdilution method.

The subject of series [15] is P. aeruginosa PAO1. Kind of series: Real-time growth curves with sublethal concentrations. It counts as cell-based. The note with it: 0.87 µM colistin alone. On the procedure:
as §3

Series [16] relates to E. coli ATCC 25922. The description is as above. It counts as cell-based. The conditions noted are these: 0.11 µM colistin alone. On the procedure: as §3
[17] abbreviates: Mus musculus, L929, 24 h, read-out: IC50 (drug concentration needed to inhibit cell growth by 50%).
Where [18] appears, read: Homo sapiens, HepG2, 24 h, read-out: IC50 (drug concentration needed to inhibit cell growth by 50%).

As to `COc1cc(Cc2cn3c(NC(C)(C)C)c(C)nc3nc2N)cc(OC)c1OC` [Compound 1a], the “effect in TMP-resistant strain” value in series [1] and in [2] was “no significant effect” throughout. Also, the “stability of stock solutions in DMSO” value in [3] is listed as “stable”. Moreover, the “time after synthesis without signs of decomposition” value in series [3] was “at least 1 year”. In addition, the minimal inhibitory concentration (MIC) in series [4] was more than 80.10 µM; in series [8] (Serratia marcescens), 80.1 µM (≈ 32 µg/mL); in series [9], 1.25 µM (≈ 0.499 µg/mL). The IC50 in series [5] (setting [17]) and in [10] (setting [18]) was more than 32 µg/mL throughout. In series [6], this compound registered a cytotoxicity at 24 h, 32 μg/mL of 0%. The same compound gave an inhibition at 5 µM in series [7] of more than 80%.

In the case of `COc1cc(Cc2cn3c(NC4CCCCC4)c(-c4cccnc4)nc3nc2N)cc(OC)c1OC` [Compound 1b], the “effect in TMP-resistant strain” value in series [1] and in series [2] was “no significant effect” each time. Besides, in series [3], the “stability of stock solutions in DMSO” value was “stable”. For the same compound, the “time after synthesis without signs of decomposition” value in series [3] is reported as “at least 1 year”. The figures for the MIC in series [4], in series [8] (Serratia marcescens) and in [9] were more than 65.50 µM, 16.4 µM (≈ 8 µg/mL) and 1.02 µM (≈ 0.498 µg/mL), respectively. Also, the IC50 in series [5] (setting [17]) and in series [10] (setting [18]) was more than 32 µg/mL in each case. In addition, the values for the cytotoxicity at 24 h, 32 μg/mL in series [6] and in [11] were 0% and 0.11%, respectively. The same compound gave an inhibition at 5 µM in series [7] of more than 80%. Besides, the “effect on growth curve” value in [12] is recorded as “complete abolition of growth”.

On to `NC(N)=NCCC[C@H](NC(=O)[C@@H](N)Cc1ccccc1)C(=O)Nc1ccc2ccccc2c1` [PAßN, phenylalanine arginyl ß-naphthylamide] (H-Phe-Arg-βNA), for which, in series [13], the “effect on bacterial growth” value is “no detectable effect on bacterial growth”.

`COc1cc(Cc2cnc(N)nc2N)cc(OC)c1OC` [TMP, Trimethoprim]: the MIC in [4] is more than 110.22 µM; in series [8] (Serratia marcescens), 13.8 µM (≈ 4 µg/mL); in [9], 0.43 µM (≈ 0.125 µg/mL). The IC50 in series [5] (Mus musculus, L929, 24 h; read-out: IC50 (drug concentration needed to inhibit cell growth by 50%)) is more than 32 µg/mL; in series [10] (Homo sapiens, HepG2, 24 h; read-out: IC50 (drug concentration needed to inhibit cell growth by 50%)), more than 32 µg/mL. The cytotoxicity at 24 h, 32 μg/mL in series [6] is 0.8%; in [11] it was 0.35%.

Consider colistin, for which the figures for the MIC in series [4], in series [8] and in [9] were 1.73 µM, more than 886.23 µM and 0.43 µM, respectively. In addition, in series [14] (PAßN 20 µg/mL), the “MIC With PAßN” value is recorded as 1.73 µM. Also, the “MIC Without PAßN” value in series [14] came to 1.73 µM. The delay in growth in series [15] stood at 2 h; in series [16], 10 h.
